pEC50, pIC50: −log10 of the molar value.
Assays:
[1] = tested on: XBP1(u)-luciferase splicing reporter in HepG2 hepatoma cells; assay: HepG2 XBP1 reporter assay (XBP1(u)-Luc); assay type: cell-based; details: Homo sapiens, 6 hours after compound addition, Table 3, read-out: XBP1-luc HepG2 1 EC50
[2] = tested on: β-catenin-TCF-mediated reporter transcription activity in Colo 205 cells; assay: Colo 205 reporter assay (TCF/LEF promoter-driven firefly luciferase); assay type: cell-based; details: Homo sapiens; Colo 205 TCF/LEF luciferase reporter, 5 hours after compound addition, 384 well; read-out: Colo205 IC50
Text: The compounds of the invention described herein were screened using the assay procedure for β-catenin-TCF-mediated reporter transcription activity described below.
Reporter cell lines were generated by stably transfecting cells of cancer cell lines (e.g., colon cancer) with a plasmid reporter construct (From SABiosciences, a QIAGEN company) that includes TCF/LEF promoter driving expression of the firefly luciferase gene. TCF/LEF reporter constructs were made in which TCF/LEF promoter, a promoter with optimal number of TCF/LEF binding sites designed by SABiosciences, was linked upstream of the firefly luciferase gene. This construct could also include a puromycin resistance gene as a selectable marker. This construct could also be used to stably transfect Colo 205 cells, a colon cancer cell line having a mutated APC gene that causes a constitutively active β-catenin. A control cell line was generated using another plasmid construct containing the luciferase gene under the control of a CMV basal promoter which is not activated by β-catenin.
Colo 205 Cultured cells with a stably transfected reporter construct were plated at approximately 10,000 cells per well into 384 well multi-well plates for twenty four hours. The testing compounds were then added to the wells in 2-fold serial dilutions using a twenty micromolar top concentration. A series of control wells for each cell type received only compound solvent. Five hours after the addition of compound, reporter activity for luciferase was assayed, by addition of the SteadyGlo luminescence reagent (Promega). The reporter luminescence activity was measured using Pherastar plate reader (BMG Labtech). Readings were normalized to DMSO only treated cells, and normalized activities were then used in the IC50 calculations. The Colo 205 reporter assay data are summarized in Table 3: A<0.3 μM; 0.3 μM≤B<1.0 μM; 1.0 μM≤C<5.0 μM; D≥5.0 μM.

Structure (SMILES) | pEC50 [1] | pIC50 [2]
Cc1cc(N2CCCOCC2c2ccc(NC(=O)C3(F)CCOC3)cc2Cl)nc(N)n1 (racemic) [I-279, (+/−)-N-(4-(4-(2-amino-6-methylpyrimidin-4-yl)-1,4-oxazepan-3-yl)-3-chlorophenyl)-3-fluorotetrahydrofuran-3-carboxamide] | > 6.22 | > 6.52
Cc1cc(N2CCCCCC2c2ccccc2Cl)nc(N)n1 (centres unmarked) [I-243] | > 6.22 | > 6.52
Cc1cc(N2CCCOCC2c2ccc(NC(=O)C(C)(C)O)cc2Cl)nc(N)n1 (centres unmarked) [I-308] | > 6.22 | > 6.52
Cc1cc(N2CCCOCC2c2cc(NCCO)ccc2Cl)nc(N)n1 (single isomer, unassigned) [I-237] | > 6.22 | > 6.52
Cc1cc(N2CCCOC[C@@H]2c2ccc(NC3CN(C(=O)OC(C)(C)C)C3)cc2Cl)nc(N)n1 [I-256, Tert-butyl 3-[4-[(3S)-4-(2-amino-6-methyl-pyrimidin-4-yl)-1,4-oxazepan-3-yl]-3-chloro-anilino]azetidine-1-carboxylate] | > 6.22 | > 6.52
Cc1cc(N2CCCOCC2c2ccc(NC(=O)C3(C)COC3)cc2Cl)nc(N)n1 (racemic) [I-282, (+/−)-N-(4-(4-(2-amino-6-methylpyrimidin-4-yl)-1,4-oxazepan-3-yl)-3-chlorophenyl)-3-methyloxetane-3-carboxamide] | 5.70 to 6.22 | 6.00 to 6.52
COc1ccc(OC)c(C2CCCCCN2c2cc(C)nc(N)n2)c1 (racemic) [I-25, (+/−)-4-(2-(2,5-dimethoxyphenyl)azepan-1-yl)-6-methylpyrimidin-2-amine] | 5.70 to 6.22 | > 6.52
COc1ccccc1[C@H]1CCCCCN1c1cc(C)nc(N)n1 (single isomer, unassigned) [I-11] | 5.30 to 5.70 | > 6.52
Cc1cc(N2CCCOCC2c2ccc(OCC3(CO)CC3)cc2Cl)nc(N)n1 (racemic) [I-233, (+/−)-[1-[[4-[4-(2-amino-6-methyl-pyrimidin-4-yl)-1,4-oxazepan-3-yl]-3-chloro-phenoxy]methyl]-cyclopropyl]methanol] | 5.70 to 6.22 | > 6.52
COc1cccc(F)c1C1CCCCCN1c1cc(C)nc(N)n1 (racemic) [I-50, (+/−)-4-[2-(2-fluoro-6-methoxy-phenyl)azepan-1-yl]-6-methyl-pyrimidin-2-amine] | 5.70 to 6.22 | 6.00 to 6.52
Cc1cc(N2CCCOCC2c2ccc(OC[C@@H](C)O)cc2Cl)nc(N)n1 (mixture of isomers) [I-232, (+/−)-1-(4-(4-(2-amino-6-methylpyrimidin-4-yl)-1,4-oxazepan-3-yl)-3-chlorophenoxy)propan-2-ol] | > 6.22 | > 6.52
Cc1cc(N2CCCOCC2c2ccc(NC(=O)C(C)(F)F)cc2Cl)nc(N)n1 (racemic) [I-228, (+/−)-N-(4-(4-(2-amino-6-methylpyrimidin-4-yl)-1,4-oxazepan-3-yl)-3-chlorophenyl)-2,2-difluoropropanamide] | > 6.22 | 6.00 to 6.52
COCC(OC)c1ccc(C2COCCCN2c2cc(C)nc(N)n2)c(Cl)c1 (centres unmarked) [I-307] | > 6.22 | > 6.52
Cc1cc(N2CCCOCC2c2cc3c(cc2Cl)SCCN3)nc(N)n1 (racemic) [I-274, 4-[3-(7-chloro-3,4-dihydro-2H-1,4-benzothiazin-6-yl)-1,4-oxazepan-4-yl]-6-methyl-pyrimidin-2-amine] | ≤ 5.30 | 6.00 to 6.52
Cc1cc(N2CCCOCC2c2ccc(C(CO)CO)cc2Cl)nc(N)n1 (racemic) [I-236, (+/−)-2-(4-(4-(2-amino-6-methylpyrimidin-4-yl)-1,4-oxazepan-3-yl)-3-chlorophenyl)propane-1,3-diol] | > 6.22 | > 6.52
COc1cc(S(C)(=O)=O)ccc1[C@@H]1CCCCCN1c1cc(C)nc(N)n1 (single isomer, unassigned) [I-98, 4-[2-(2-methoxy-4-methylsulfonyl-phenyl)azepan-1-yl]-6-methyl-pyrimidin-2-amine] | > 6.22 | 6.00 to 6.52
Cc1cc(N2CCCCCC2c2ccccc2)nc(N)n1 (racemic) [I-4, (+/−)-4-methyl-6-(2-phenylazepan-1-yl)pyrimidin-2-amine] | 5.30 to 5.70 | 6.00 to 6.52
Cc1cc(N2CCCOC[C@@H]2c2cc(NC3COC3)ccc2Cl)nc(N)n1 [I-258, 4-[(3S)-3-[2-chloro-5-(oxetan-3-ylamino)phenyl]-1,4-oxazepan-4-yl]-6-methyl-pyrimidin-2-amine] | > 6.22 | > 6.52
Cc1cc(N2CCCOC[C@@H]2c2ccc(NC3(C)COC3)cc2Cl)nc(N)n1 [I-266, 4-[(3S)-3-[2-chloro-4-[(3-methyloxetan-3-yl)amino]phenyl]-1,4-oxazepan-4-yl]-6-methyl-pyrimidin-2-amine] | > 6.22 | > 6.52
Cc1cc(N2CCCOC[C@@H]2c2cc(NCCO)ccc2Cl)nc(N)n1 (single isomer, unassigned) [I-253] | > 6.22 | > 6.52
Cc1cc(N2CCCOCC2c2ccc(OCC3(C)CCOC3)cc2Cl)nc(N)n1 (racemic) [I-229, (+/−)-4-[3-[2-chloro-4-[(3-methyltetrahydrofuran-3-yl)methoxy]phenyl]-1,4-oxazepan-4-yl]-6-methyl-pyrimidin-2-amine] | > 6.22 | 6.00 to 6.52
Cc1cc(N2CCCCCC2c2ccccc2C)nc(N)n1 (racemic) [I-6, (+/−)-4-methyl-6-(2-(2-(methyl)phenyl)azepan-1-yl)pyrimidin-2-amine] | 5.30 to 5.70 | 6.00 to 6.52
Cc1cc(N2CCCOCC2c2ccc(OC3COC3)cc2Cl)nc(N)n1 (racemic) [I-231, (+/−)-4-[3-[2-chloro-4-(oxetan-3-yloxy)phenyl]-1,4-oxazepan-4-yl]-6-methyl-pyrimidin-2-amine] | > 6.22 | > 6.52

The remaining lines, values ahead:

pEC50 [1] | pIC50 [2] | Structure (SMILES)
> 6.22 | > 6.52 | Cc1cc(N2CCCOC[C@@H]2c2ccc(N3CC(C)(O)C3)cc2Cl)nc(N)n1 [I-261, (S)-1-(4-(4-(2-amino-6-methylpyrimidin-4-yl)-1,4-oxazepan-3-yl)-3-chlorophenyl)-3-methylazetidin-3-ol]
> 6.22 | > 6.52 | Cc1cc(N2CCCOCC2c2ccc(NC3COC3)cc2Cl)nc(N)n1 (centres unmarked) [I-302]
> 6.22 | > 6.52 | Cc1cc(N2CCCOC[C@@H]2c2ccc(N3CCC(C)(O)CC3)cc2Cl)nc(N)n1 [I-242, (5)-1-(4-(4-(2-amino-6-methylpyrimidin-4-yl)-1,4-oxazepan-3-yl)-3-chlorophenyl)-4-methylpiperidin-4-ol]
5.70 to 6.22 | 6.00 to 6.52 | Cc1cc(N2CCCOCC2c2ccc(N3CCCC3)cc2Cl)nc(N)n1 (racemic) [I-227, (+/−)-4-[3-(2-chloro-4-pyrrolidin-1-yl-phenyl)-1,4-oxazepan-4-yl]-6-methyl-pyrimidin-2-amine]
> 6.22 | > 6.52 | Cc1cc(N2CCCOCC2c2ccc(C3CCCN3)cc2Cl)nc(N)n1 (racemic) [I-267]
5.70 to 6.22 | 6.00 to 6.52 | Cc1cc(N2CCCOCC2c2ccc(N3CCN(C)CC3)cc2Cl)nc(N)n1 (racemic) [I-225, (+/−)-4-[3-[2-chloro-4-(4-methylpiperazin-1-yl)phenyl]-1,4-oxazepan-4-yl]-6-methyl-pyrimidin-2-amine]
> 6.22 | > 6.52 | Cc1cc(N2CCCOC[C@@H]2c2ccc(NC3CN(C)C3)cc2Cl)nc(N)n1 [I-246, 4-[(3S)-3-[2-chloro-4-[(1-methylazetidin-3-yl)amino]phenyl]-1,4-oxazepan-4-yl]-6-methyl-pyrimidin-2-amine]
> 6.22 | 6.00 to 6.52 | Cc1cc(N2CCCOC[C@@H]2c2ccc(NC3CNC3)cc2Cl)nc(N)n1 [I-257, 4-[(3S)-3-[4-(azetidin-3-ylamino)-2-chloro-phenyl]-1,4-oxazepan-4-yl]-6-methyl-pyrimidin-2-amine]
> 6.22 | > 6.52 | Cc1cc(N2CCCOCC2c2ccc(N3CCN(C(=O)C4CC4)CC3)cc2Cl)nc(N)n1 (racemic) [I-273, (+/−)-[4-[4-[4-(2-amino-6-methyl-pyrimidin-4-yl)-1,4-oxazepan-3-yl]-3-chloro-phenyl]piperazin-1-yl]-cyclopropyl-methanone]
5.70 to 6.22 | > 6.52 | Cc1cc(N2CCCOCC2c2ccc(C3COC3)cc2Cl)nc(N)n1 (racemic) [I-255, (+/−)-4-[3-[2-chloro-4-(oxetan-3-yl)phenyl]-1,4-oxazepan-4-yl]-6-methyl-pyrimidin-2-amine]
> 6.22 | > 6.52 | Cc1cc(N2CCCOCC2c2cc(NC(=O)C3CC3)ccc2Cl)nc(N)n1 (racemic) [I-241, (+/−)-N-[3-[4-(2-amino-6-methyl-pyrimidin-4-yl)-1,4-oxazepan-3-yl]-4-chloro-phenyl]cyclopropanecarboxamide]

Reference: US11440907B1 (Merck Patent GmbH, priority 2018, dated 2022)
